Reference: patent publication US11207310B2 (PRILENIA NEUROTHERAPEUTICS LTD., priority 2016, dated 2021)
Like-named read-outs stand apart in the source and are kept apart here.

Test system: patients with HD
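Note: UHDRS Total Functional Capacity items for finances and ADL, each scored 0 to 3, where 3 means normal function and 0 means unable (finances) or total care (ADL).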

Compound: CCCN1CCC(c2cccc(S(C)(=O)=O)c2)CC1 [pridopidine, 4-[3-(methylsulfonyl)phenyl]-1-propyl-piperidine]
- Δ to placebo: UHDRS TFC Finance and ADL score, change from baseline (67.5 mg bid, TMS 1st 2Qs, week 52): 0.25
- Δ to placebo: UHDRS TFC Finance and ADL score, change from baseline (67.5 mg bid, TMS 1st 3Qs, week 26): 0.04
- Δ to placebo: UHDRS TFC Finance and ADL score, change from baseline (67.5 mg bid, TMS 1st 3Qs, week 52): −0.03
- Δ to placebo: UHDRS TFC Finance and ADL score, change from baseline (67.5 mg bid, TMS 1st Q, week 26): 0.5
- Δ to placebo: UHDRS TFC Finance and ADL score, change from baseline (67.5 mg bid, TMS 1st Q, week 52): 0.61
- Change from baseline in UHDRS TFC Finance ADL, Δ to placebo (67.5 mg bid, Week 26, ALL): 0.16
- UHDRS TFC Finance ADL, change from baseline, Δ to placebo (67.5 mg bid, Week 26, BL TFC<7, p value 0.8408): −0.06
- UHDRS TFC Finance ADL, change from baseline, Δ to placebo (67.5 mg bid, Week 26, BL TFC≥7, p value 0.0817): 0.32
- Change from baseline in UHDRS TFC Finance ADL, Δ to placebo (67.5 mg bid, Week 26, Stage 1 BL TFC 11-13): 0.65
- Change from baseline in UHDRS TFC Finance ADL, Δ to placebo (67.5 mg bid, Week 26, Stage 2 BL TFC 7-10 (FIG. 11c)): 0.26
- Change from baseline in UHDRS TFC Finance ADL, Δ to placebo (67.5 mg bid, Week 26, Stage 2 BL TFC 7-10 (FIG. 11f)): 0.54
- Change from baseline in UHDRS TFC Finance ADL, Δ to placebo (67.5 mg bid, Week 52, ALL): 0.1
- UHDRS TFC Finance ADL, change from baseline, Δ to placebo (67.5 mg bid, Week 52, BL TFC<7, p value 0.497): −0.25
- UHDRS TFC Finance ADL, change from baseline, Δ to placebo (67.5 mg bid, Week 52, BL TFC≥7, p value 0.1926): 0.27
- Change from baseline in UHDRS TFC Finance ADL, Δ to placebo (67.5 mg bid, Week 52, Stage 1 BL TFC 11-13): −0.18
- Δ to placebo: UHDRS TFC Finance and ADL score, change from baseline (90 mg bid, BL CAG Repeat >44, week 26): 0.67
- Δ to placebo: UHDRS TFC Finance and ADL score, change from baseline (90 mg bid, BL TFC≥9, week 26): 0.51
- Δ to placebo: UHDRS TFC Finance and ADL score, change from baseline (90 mg bid, BL TFC≥9 and BL TMS 1st 3 Qs, week 26): 0.45
- Δ to placebo: UHDRS TFC Finance and ADL score, change from baseline (90 mg bid, BL TFC≥9 and CAG Repeat >44, week 26): 0.83
- Δ to placebo: UHDRS TFC Finance and ADL score, change from baseline (90 mg bid, BL TFC≥9 and CAG Repeats <44 and BL TMS 1st 3 Qs, week 26): 0.81
- Δ to placebo: UHDRS TFC Finance and ADL score, change from baseline (90 mg bid, BL TFC≥9 or CAG Repeat >44, week 26): 0.52
- Δ to placebo: UHDRS TFC Finance and ADL score, change from baseline (90 mg bid, CAG Repeats <44 and BL TMS 1st 3 Qs, week 26): 0.6
- Δ to placebo: UHDRS TFC Finance and ADL score, change from baseline (90 mg bid, TMS 1st 2Qs, week 26): 0.26
- Δ to placebo: UHDRS TFC Finance and ADL score, change from baseline (90 mg bid, TMS 1st 2Qs, week 52): 0.47
- Δ to placebo: UHDRS TFC Finance and ADL score, change from baseline (90 mg bid, TMS 1st 3Qs, week 26): 0.35
- Δ to placebo: UHDRS TFC Finance and ADL score, change from baseline (90 mg bid, TMS 1st 3Qs, week 52): 0.21
- Δ to placebo: UHDRS TFC Finance and ADL score, change from baseline (90 mg bid, TMS 1st Q, week 26): 0.63
- Δ to placebo: UHDRS TFC Finance and ADL score, change from baseline (90 mg bid, TMS 1st Q, week 52): 0.57
- Change from baseline in UHDRS TFC Finance ADL, Δ to placebo (90 mg bid, Week 26, ALL): 0.31
- UHDRS TFC Finance ADL, change from baseline, Δ to placebo (90 mg bid, Week 26, BL TFC<7, p value 0.3747): 0.28
- UHDRS TFC Finance ADL, change from baseline, Δ to placebo (90 mg bid, Week 26, BL TFC≥7, p value 0.0093): 0.47
- Change from baseline in UHDRS TFC Finance ADL, Δ to placebo (90 mg bid, Week 26, Stage 1 BL TFC 11-13): 0.97
- Change from baseline in UHDRS TFC Finance ADL, Δ to placebo (90 mg bid, Week 26, Stage 2 BL TFC 7-10 (FIG. 11c)): 0.3
- Change from baseline in UHDRS TFC Finance ADL, Δ to placebo (90 mg bid, Week 26, Stage 2 BL TFC 7-10 (FIG. 11f)): 0.56
- Change from baseline in UHDRS TFC Finance ADL, Δ to placebo (90 mg bid, Week 52, ALL): 0.17
- UHDRS TFC Finance ADL, change from baseline, Δ to placebo (90 mg bid, Week 52, BL TFC<7, p value 0.4368): −0.29
- UHDRS TFC Finance ADL, change from baseline, Δ to placebo (90 mg bid, Week 52, BL TFC≥7, p value 0.0088): 0.53
- Change from baseline in UHDRS TFC Finance ADL, Δ to placebo (90 mg bid, Week 52, Stage 1 BL TFC 11-13): 0.4
- Δ to placebo: UHDRS TFC Finance and ADL score, change from baseline (112.5 mg bid, BL CAG Repeat >44, week 26): 0.47
- Δ to placebo: UHDRS TFC Finance and ADL score, change from baseline (112.5 mg bid, BL TFC≥9, week 26): 0.57
- Δ to placebo: UHDRS TFC Finance and ADL score, change from baseline (112.5 mg bid, BL TFC≥9 and BL TMS 1st 3 Qs, week 26): 0.54
- Δ to placebo: UHDRS TFC Finance and ADL score, change from baseline (112.5 mg bid, BL TFC≥9 and CAG Repeat >44, week 26): 1.02
- Δ to placebo: UHDRS TFC Finance and ADL score, change from baseline (112.5 mg bid, BL TFC≥9 and CAG Repeats <44 and BL TMS 1st 3 Qs, week 26): 1.08
- Δ to placebo: UHDRS TFC Finance and ADL score, change from baseline (112.5 mg bid, BL TFC≥9 or CAG Repeat >44, week 26): 0.4
- Δ to placebo: UHDRS TFC Finance and ADL score, change from baseline (112.5 mg bid, CAG Repeats <44 and BL TMS 1st 3 Qs, week 26): 0.57
- Δ to placebo: UHDRS TFC Finance and ADL score, change from baseline (112.5 mg bid, TMS 1st 2Qs, week 26): 0.19
- Δ to placebo: UHDRS TFC Finance and ADL score, change from baseline (112.5 mg bid, TMS 1st 2Qs, week 52): 0.44
- Δ to placebo: UHDRS TFC Finance and ADL score, change from baseline (112.5 mg bid, TMS 1st 3Qs, week 26): 0.41
- Δ to placebo: UHDRS TFC Finance and ADL score, change from baseline (112.5 mg bid, TMS 1st 3Qs, week 52): 0.09
- Δ to placebo: UHDRS TFC Finance and ADL score, change from baseline (112.5 mg bid, TMS 1st Q, week 26): 1.1
- Δ to placebo: UHDRS TFC Finance and ADL score, change from baseline (112.5 mg bid, TMS 1st Q, week 52): 0.74
- Change from baseline in UHDRS TFC Finance ADL, Δ to placebo (112.5 mg bid, Week 26, ALL): 0.38
- UHDRS TFC Finance ADL, change from baseline, Δ to placebo (112.5 mg bid, Week 26, BL TFC<7, p value 0.9361): 0.03
- UHDRS TFC Finance ADL, change from baseline, Δ to placebo (112.5 mg bid, Week 26, BL TFC≥7, p value 0.0007): 0.62
- Change from baseline in UHDRS TFC Finance ADL, Δ to placebo (112.5 mg bid, Week 26, Stage 1 BL TFC 11-13): 1.12
- Change from baseline in UHDRS TFC Finance ADL, Δ to placebo (112.5 mg bid, Week 26, Stage 2 BL TFC 7-10 (FIG. 11c)): 0.46
- Change from baseline in UHDRS TFC Finance ADL, Δ to placebo (112.5 mg bid, Week 26, Stage 2 BL TFC 7-10 (FIG. 11f)): 0.18
- Change from baseline in UHDRS TFC Finance ADL, Δ to placebo (112.5 mg bid, Week 52, ALL): 0.1
- UHDRS TFC Finance ADL, change from baseline, Δ to placebo (112.5 mg bid, Week 52, BL TFC<7, p value 0.5626): −0.22
- UHDRS TFC Finance ADL, change from baseline, Δ to placebo (112.5 mg bid, Week 52, BL TFC≥7, p value 0.0841): 0.36
- Change from baseline in UHDRS TFC Finance ADL, Δ to placebo (112.5 mg bid, Week 52, Stage 1 BL TFC 11-13): 0.64
